Results published in patent US20140303082A1, “SELECTIVE GPCR LIGANDS” (Medical Research Council, priority 2011, published 2014).
Residue numbers refer to the chain shown, from its start. Where a SMILES comes first, the peptide text is derived from it. Where no end group is shown, it is not given here.

Key:
AT1aR [1] = biological target: T1, AT1aR (Rattus norvegicus, UniProt P25095); assay: Radioligand binding assays (saturation and competition), HEK293T membranes; details: for Ki: competition vs 2 nM [125I]-AII, 2 hours on ice, Cheng and Prusoff, receptor printed AT1R
T1 construct: expressed in transfected cells; host or cells: HEK293T, transient, crude membranes
T1 sequence (P25095 1-359): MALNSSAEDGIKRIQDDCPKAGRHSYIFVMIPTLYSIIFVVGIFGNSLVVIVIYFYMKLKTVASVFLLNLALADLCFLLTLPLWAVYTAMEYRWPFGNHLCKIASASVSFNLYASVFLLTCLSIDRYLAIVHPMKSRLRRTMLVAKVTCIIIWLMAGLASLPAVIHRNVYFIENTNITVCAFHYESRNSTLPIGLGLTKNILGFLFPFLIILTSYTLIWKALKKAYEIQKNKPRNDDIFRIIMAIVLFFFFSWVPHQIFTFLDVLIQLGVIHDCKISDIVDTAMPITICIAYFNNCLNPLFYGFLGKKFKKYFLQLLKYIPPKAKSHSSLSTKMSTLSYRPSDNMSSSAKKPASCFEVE
Experimental: (§1) Cell culture and transient transfection. HEK293T cells were maintained at 37° C. in Dulbecco's modified Eagle's medium (DMEM) supplemented with 10% (v/v) fetal bovine serum (FBS), 2 mM glutamine, 100 U/ml penicillin, and 100 μg/ml streptomycin. Cells were seeded into 10 cm dish and 24 hours later were transfected with either AT1aR (pcDNA3.1) or AT2R (pcDNAI/Amp) using GeneJuice transfection reagent according to the manufacturer's instructions. Cells were harvested 48 hours after transfection. A pellet of transfected HEK293T cells (2×10^6 cells) was resuspended in ice-cold 0.5 ml binding buffer (50 mM Tris-HCl pH 7.4, 100 mM NaCl, 10 mM MgCl2, 1 mM EDTA, 0.2% BSA and 0.025% Bacitracin) containing protease inhibitors (Complete™, Roche). The cells were transferred to a 1.5 ml microcentrifuge tube and subjected to two cycles of freeze-thawing. The lysed cells were sheared by passaging seven times through a 26-gauge needle and the crude membranes were pelleted by ultracentrifugation (60 min, 120,000×g, 4° C.). The crude membranes were then resuspended in a final volume of 0.2 ml ice-cold binding buffer containing protease inhibitors corresponding to a protein concentration 3.3 μg/μl as determined by the amido black protein assay^45.
(§2) Radioligand binding assays. […] Non-specific binding was determined in presence of 6 μM cold AII. […] Samples were incubated for 2 hours at 4° C. Receptor-bound and free radioligand were separated by filtration through Whatman GF/B filters, pre-soaked with 0.3% polyethylamine. The filters were washed with 5 ml of ice-cold binding buffer and transferred to scintillation tubes. Radioactivity was counted on a Beckman LS6000 liquid scintillation counter and data were analyzed by non-linear regression using Prism software (GraphPad).

AT2R-F272H = biological target: T2, AT2R-F272H (Homo sapiens, UniProt P50052, F272H); assay: Radioligand binding assays, AT2R mutant; details: competition vs 2 nM [125I]-AII, 2 hours on ice, Cheng and Prusoff
T2 construct: expressed in transfected cells; host or cells: HEK293T, transient, crude membranes
T2 sequence (P50052 1-363 F272H): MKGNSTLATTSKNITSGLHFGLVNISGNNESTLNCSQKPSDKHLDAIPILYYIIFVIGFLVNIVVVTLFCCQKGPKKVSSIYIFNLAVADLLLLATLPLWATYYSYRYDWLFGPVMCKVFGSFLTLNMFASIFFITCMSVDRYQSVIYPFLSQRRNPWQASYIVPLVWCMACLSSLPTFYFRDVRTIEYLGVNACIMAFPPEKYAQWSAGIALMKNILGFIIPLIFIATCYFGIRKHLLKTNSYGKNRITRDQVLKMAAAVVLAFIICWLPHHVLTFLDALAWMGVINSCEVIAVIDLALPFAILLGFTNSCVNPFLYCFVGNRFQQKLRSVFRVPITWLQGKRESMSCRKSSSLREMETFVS
Experimental: (§3) Mutagenesis. AT2R mutants were generated as described elsewhere^44.
as §1, §2

AT2R-F272A = biological target: T3, AT2R-F272A (Homo sapiens, UniProt P50052, F272A); assay: Radioligand binding assays, AT2R mutant; details: competition vs 2 nM [125I]-AII, 2 hours on ice, Cheng and Prusoff
T3 construct: expressed in transfected cells; host or cells: HEK293T, transient, crude membranes
T3 sequence (P50052 1-363 F272A): T2 sequence (P50052 1-363 F272H) with H272A
Experimental: as §3, §1, §2

AT2R-Y189N = biological target: T4, AT2R-Y189N (Homo sapiens, UniProt P50052, Y189N); assay: Radioligand binding assays, AT2R mutant; details: competition vs 2 nM [125I]-AII, 2 hours on ice, Cheng and Prusoff
T4 construct: expressed in transfected cells; host or cells: HEK293T, transient, crude membranes
T4 sequence (P50052 1-363 Y189N): T2 sequence (P50052 1-363 F272H) with Y189N, H272F
Experimental: as §3, §1, §2

AT2R-Y189A = biological target: T5, AT2R-Y189A (Homo sapiens, UniProt P50052, Y189A); assay: Radioligand binding assays, AT2R mutant; details: competition vs 2 nM [125I]-AII, 2 hours on ice, Cheng and Prusoff
T5 construct: expressed in transfected cells; host or cells: HEK293T, transient, crude membranes
T5 sequence (P50052 1-363 Y189A): T2 sequence (P50052 1-363 F272H) with Y189A, H272F
Experimental: as §3, §1, §2

AT2R wild type = assay: Radioligand binding assays (saturation and competition), HEK293T membranes
Experimental: as §1, §2

[2] = cis/trans isomer population in aqueous solution by NMR; assay type: physicochemical; details: cis amide bond at residue 6-Pro7, aqueous solution
Text: Peptide synthesis and sample preparation. The synthesis of the following peptides: AII (D^1-R^2—V^3—Y^4—I^5—H^6—P^7—F^8); [Y]^6-AII (D^1-R^2—V^3—Y^4—I^5—Y^6—P^7—F^8); [4-OPO3H2—F]^6-AII, (D^1-R^2—V^3—Y^4—I^5-(4-OPO3H2—F)^6—P^7—F^8), [F]^6-AII, (D^1-R^2—V^3—Y^4—I^5—F^6—P^7—F^8) and [4-NO2—F]^6-AII, (D^1-R^2—V^3—Y^4—I^5-(4-NO2—F)^6—P^7—F^8) was achieved using Fmoc/tBu methodology. 2-Chlorotrityl chloride resin and N^α-Fmoc (9-fluorenylmethyloxycarbonyl) amino acids were used for the synthesis. Peptide purity was assessed by analytical HPLC (Nucleosil-120 C18, reversed phase, 250×4.0 mm), mass spectrometry (FABMS, ESIMS) and amino acid analysis. The samples were prepared for NMR spectroscopy by dissolving the peptide in 0.01 M KPi buffer (pH=4), containing 0.02 M KCl. 2,2-dimethyl-2-sila-pentane sulfonate (DSS) was added to a concentration of 1 mM as an internal chemical shift reference. Peptide concentration was commonly 4 mM in 90% ^1H2O/10% ^2H2O. Trace amounts of NaN3 were added as a preservative.
Inter-proton distances for AII were derived by measuring cross-peak intensities in the NOESY spectra. Intensities were calibrated to give a set of distance constrains using the NMRVIEW software package. NOEs cross peaks were separated into three distance categories according to their intensity. […]

AT2R = biological target: T6, AT2R (Homo sapiens, UniProt P50052); details: relative to AII; cited from earlier work
T6 sequence (P50052 1-363): T2 sequence (P50052 1-363 F272H) with H272F

AT1aR [3] = details: relative to AII; cited from earlier work

Row | lower affinity for AT2R in comparison to [Y]^6-AII (AT2R wild type; unpublished data) | Compound | Ki (AT1aR [1]) [nM] | Ki (AT2R-F272H) [nM] | Ki (AT2R-F272A) [nM] | Ki (AT2R-Y189N) [nM] | Ki (AT2R-Y189A) [nM] | %cis [2] [%] | other results
1 |  | DRVYIYPF [[Y]^6-AII] | > 2500 | 16 | 16 | 10 | 12 |  | 
2 | more than 50 times | D^1-R^2—V^3—Y^4—I^5—F^6—P^7—F^8 (DRVYIFPF; Angiotensin-2; UniProt P01019 25-32, looked up, variant H6F) [[F]^6-AII, AII analogue with phenylalanine at position 6] |  |  |  |  |  | ~20 | affinity for AT1aR compared with AT2R (in words) (AT2R wild type; unpublished data): same affinity for both AT1aR and AT2R
3 |  | Pro7Gly mutation in AII: literature AII analogue with Pro7 replaced by Gly (ref 16) (DRVYIHGF; Angiotensin-2; UniProt P01019 25-32, looked up, variant P7G) |  |  |  |  |  |  | affinity for the AT2R (in words) (AT2R): almost retained its affinity; lower affinity for AT1aR (AT1aR [3]): 150 times
4 |  | CC[C@H](C)[C@H](NC(=O)[C@H](Cc1ccc(O)cc1)NC(=O)[C@@H](NC(=O)[C@H](CCCNC(=N)N)NC(=O)[C@@H](N)CC(=O)O)C(C)C)C(=O)N[C@@H](Cc1c[nH]cn1)C(=O)N1CCC[C@H]1C(=O)N[C@@H](Cc1ccccc1)C(=O)O [[^125I]-AII, reference compound] |  |  |  |  |  |  | Kd (AT2R wild type; saturation assay, 2 hours on ice): 2.3 ± 0.3 nM
5 |  | CC[C@H](C)[C@H](NC(=O)[C@H](Cc1ccc(O)cc1)NC(=O)[C@@H](NC(=O)[C@H](CCCNC(=N)N)NC(=O)[C@@H](N)CC(=O)O)C(C)C)C(=O)N[C@@H](Cc1ccc(OP(=O)(O)O)cc1)C(=O)N1CCC[C@H]1C(=O)N[C@@H](Cc1ccccc1)C(=O)O [[4-OPO3H2—F]^6-AII, D^1-R^2—V^3—Y^4—I^5-(4-OPO3H2—F)^6—P^7—F^8] (HELM PEPTIDE1{D.R.V.Y.I.[O=C([C@H](Cc1ccc(OP(=O)(O)O)cc1)N[*:1])[*:2]].P.F}$$$$V2.0) | > 2500 | 21 | 250 | 200 | 51 |  | 
6 | 300 times | D^1-R^2—V^3—Y^4—I^5-(4-NO2—F)^6—P^7—F^8 [[4-NO2—F]^6-AII] |  |  |  |  |  | ~5 | binding / affinity for AT1aR (in words) (AT1aR [1]): high affinity (nM)
